Experimental data from patent publication US20250115569A1, “SULFONAMIDE COMPOUNDS FOR THE TREATMENT OF NEUROLOGICAL CONDITIONS” (LARIO THERAPEUTICS LIMITED, priority 2021, published 2025).

Biological target: Cav2.3 (Homo sapiens, UniProt Q15878)
Assay: Human Cav2.3 channel calcium-influx assay
Type: cell-based
Conditions: Fluo8 fluorescence, HEK-293 T-Rex/Kir2.1/Cav2.3e cells, without pluronic acid, read-out: Cav2.3 (pIC50) (converted)
Method in brief: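 HEK-293 T-Rex/Kir2.1 cells with doxycycline (0.2 μg/mL)-inducible Cav2.3e plus Cavβ4-α2δ1, loaded with Fluo8 NW in 0 mM K+ Tyrode's. Compounds (8 points, top 30 μM, half-log, 0.3% final DMSO, n=4) preincubated 3 min at RT, then depolarized with 20 mM KCl/2 mM CaCl2 (final); fluorescence read 130 s.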

Chain of Cav2.3 (Q15878 whole entry, looked up): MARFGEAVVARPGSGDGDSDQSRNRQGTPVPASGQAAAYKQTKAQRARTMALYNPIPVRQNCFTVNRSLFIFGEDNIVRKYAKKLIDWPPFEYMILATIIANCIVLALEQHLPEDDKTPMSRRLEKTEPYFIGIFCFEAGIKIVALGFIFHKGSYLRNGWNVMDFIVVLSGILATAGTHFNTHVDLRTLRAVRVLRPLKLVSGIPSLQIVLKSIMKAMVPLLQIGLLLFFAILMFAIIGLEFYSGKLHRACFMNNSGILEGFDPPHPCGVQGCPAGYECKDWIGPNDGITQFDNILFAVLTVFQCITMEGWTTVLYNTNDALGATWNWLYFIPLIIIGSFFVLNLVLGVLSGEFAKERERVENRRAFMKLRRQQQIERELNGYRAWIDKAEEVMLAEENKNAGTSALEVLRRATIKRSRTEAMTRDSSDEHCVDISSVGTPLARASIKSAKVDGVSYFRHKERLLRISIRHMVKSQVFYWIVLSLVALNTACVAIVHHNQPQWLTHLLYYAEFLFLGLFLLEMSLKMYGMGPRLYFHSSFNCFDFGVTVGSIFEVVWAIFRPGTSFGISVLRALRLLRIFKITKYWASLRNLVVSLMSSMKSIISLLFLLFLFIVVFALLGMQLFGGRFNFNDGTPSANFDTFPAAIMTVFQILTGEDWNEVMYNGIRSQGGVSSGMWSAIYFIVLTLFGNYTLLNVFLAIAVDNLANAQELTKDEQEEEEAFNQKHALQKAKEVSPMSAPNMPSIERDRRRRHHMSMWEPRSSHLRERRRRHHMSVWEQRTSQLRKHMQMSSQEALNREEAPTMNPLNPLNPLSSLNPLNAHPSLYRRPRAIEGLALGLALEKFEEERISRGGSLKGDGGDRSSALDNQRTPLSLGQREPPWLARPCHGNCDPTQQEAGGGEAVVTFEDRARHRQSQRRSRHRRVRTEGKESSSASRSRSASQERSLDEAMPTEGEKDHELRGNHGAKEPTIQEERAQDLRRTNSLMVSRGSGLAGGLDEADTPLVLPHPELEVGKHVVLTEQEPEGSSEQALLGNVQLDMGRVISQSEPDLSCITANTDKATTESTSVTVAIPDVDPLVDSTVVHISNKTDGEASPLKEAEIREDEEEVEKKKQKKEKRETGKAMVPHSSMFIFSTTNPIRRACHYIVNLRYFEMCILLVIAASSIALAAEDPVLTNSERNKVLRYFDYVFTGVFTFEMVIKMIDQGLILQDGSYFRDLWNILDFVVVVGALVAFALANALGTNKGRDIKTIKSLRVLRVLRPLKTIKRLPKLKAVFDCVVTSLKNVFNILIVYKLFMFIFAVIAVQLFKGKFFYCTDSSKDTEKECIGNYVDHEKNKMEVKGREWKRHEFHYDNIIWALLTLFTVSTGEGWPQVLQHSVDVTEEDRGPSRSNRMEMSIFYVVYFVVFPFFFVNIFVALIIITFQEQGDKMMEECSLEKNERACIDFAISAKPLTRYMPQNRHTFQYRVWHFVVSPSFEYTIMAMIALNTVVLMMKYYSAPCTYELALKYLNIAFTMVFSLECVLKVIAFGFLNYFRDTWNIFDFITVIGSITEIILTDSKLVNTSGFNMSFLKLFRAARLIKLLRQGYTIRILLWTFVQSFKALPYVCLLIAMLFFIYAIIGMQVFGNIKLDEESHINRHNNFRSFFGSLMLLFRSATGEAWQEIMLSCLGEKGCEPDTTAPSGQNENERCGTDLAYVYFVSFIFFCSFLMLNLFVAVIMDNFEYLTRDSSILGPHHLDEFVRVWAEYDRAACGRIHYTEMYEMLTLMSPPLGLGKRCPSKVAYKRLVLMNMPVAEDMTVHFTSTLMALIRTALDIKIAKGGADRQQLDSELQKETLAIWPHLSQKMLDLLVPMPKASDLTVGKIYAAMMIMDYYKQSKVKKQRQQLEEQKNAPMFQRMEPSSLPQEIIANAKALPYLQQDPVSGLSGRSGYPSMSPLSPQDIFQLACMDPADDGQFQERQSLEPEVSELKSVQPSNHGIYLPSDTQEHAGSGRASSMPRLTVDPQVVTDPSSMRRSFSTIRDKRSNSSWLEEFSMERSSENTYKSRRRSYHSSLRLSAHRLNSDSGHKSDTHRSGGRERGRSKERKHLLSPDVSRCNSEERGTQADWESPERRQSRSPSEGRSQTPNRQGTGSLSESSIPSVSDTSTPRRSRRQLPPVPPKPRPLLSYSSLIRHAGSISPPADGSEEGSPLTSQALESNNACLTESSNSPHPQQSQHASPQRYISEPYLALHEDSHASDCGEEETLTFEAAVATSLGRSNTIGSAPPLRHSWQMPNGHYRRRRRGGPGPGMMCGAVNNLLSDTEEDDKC

Row | Compound | IC50 [µM]
1 | CCN([C@H](c1ccc(F)cc1)C(F)(F)F)S(=O)(=O)c1ccn2nncc2c1 [Example 145, (R)—N-ethyl-N-(2,2,2-trifluoro-1-(4-fluorophenyl)ethyl)-[1,2,3]triazolo[1,5-a]pyridine-5-sulfonamide] | 0.0251
2 | CCN(C(c1ccc(F)cc1)C(F)(F)F)S(=O)(=O)c1ccc(C2CNC2)s1 (stereo not drawn) [Example 47, 5-(Azetidin-3-yl)-N-ethyl-N-(2,2,2-trifluoro-1-(4-fluorophenyl)ethyl)thiophene-2-sulfonamide] | 0.501
3 | CCN([C@@H](c1ccc(OC)cc1)C(F)(F)F)S(=O)(=O)C1CCOCC1 [Example 126, (S)—N-ethyl-N-(2,2,2-trifluoro-1-(4-methoxyphenyl)ethyl)tetrahydro-2H-pyran-4-sulfonamide] | 30.2
4 | CCN([C@H](c1ccc(F)cc1)C(F)(F)F)S(=O)(=O)c1ccc2nc(C)cn2n1 [Example 180, (R)—N-ethyl-2-methyl-N-(2,2,2-trifluoro-1-(4-fluorophenyl)ethyl)imidazo[1,2-b]pyridazine-6-sulfonamide] | 0.447
5 | CCN([C@H](c1ccc(F)cc1)C(F)(F)F)S(=O)(=O)c1cnc2ncccn12 [Example 177, (R)—N-ethyl-N-(2,2,2-trifluoro-1-(4-fluorophenyl)ethyl)imidazo[1,2-a]pyrimidine-3-sulfonamide] | 0.0339
6 | CCN([C@H](c1ccc(F)cc1)C(F)(F)F)S(=O)(=O)c1nn(CC)c2cccnc12 [Example 173, (R)—N,1-diethyl-N-(2,2,2-trifluoro-1-(4-fluorophenyl)ethyl)-1H-pyrazolo[4,3-b]pyridine-3-sulfonamide] | 11.2
7 | CN([C@H](c1ccc(Cl)cc1)C(F)(F)F)S(=O)(=O)c1ccn2nncc2c1 [Example 202, (R)—N-(1-(4-chlorophenyl)-2,2,2-trifluoroethyl)-N-methyl-[1,2,3]triazolo[1,5-a]pyridine-5-sulfonamide] | 0.288
8 | CCN([C@H](c1ccc(C(F)(F)F)c(C)c1)C(F)(F)F)S(=O)(=O)c1cncc(F)c1 [Example 271, (R)—N-ethyl-5-fluoro-N-(2,2,2-trifluoro-1-(3-methyl-4-(trifluoromethyl)phenyl)ethyl)pyridine-3-sulfonamide] | 0.162
9 | CCN([C@H](c1ccc(F)cc1)C(F)(F)F)S(=O)(=O)c1nn(CC)c2ncccc12 [Example 190, (R)—N,1-diethyl-N-(2,2,2-trifluoro-1-(4-fluorophenyl)ethyl)-1H-pyrazolo[3,4-b]pyridine-3-sulfonamide] | 1
10 | CCN(C(c1ccc(F)cc1)C(F)(F)F)S(=O)(=O)c1cncc(C(C)=O)c1 (stereo not drawn) [Example 120, 5-acetyl-N-ethyl-N-(2,2,2-trifluoro-1-(4-fluorophenyl)ethyl)pyridine-3-sulfonamide] | 0.132
11 | CN([C@H](c1ccc(Cl)cc1)C(F)(F)F)S(=O)(=O)c1ccc(O)nn1 [Example 208, (R)—N-(1-(4-chlorophenyl)-2,2,2-trifluoroethyl)-6-hydroxy-N-methylpyridazine-3-sulfonamide] | 1.05
12 | CCN(C(c1ccc(F)cc1)C(F)(F)F)S(=O)(=O)c1ccc2c(c1)S(=O)(=O)CC2 (stereo not drawn) [Example 28, N-ethyl-N-(2,2,2-trifluoro-1-(4-fluorophenyl)ethyl)-2,3-dihydrobenzo[b]thiophene-6-sulfonamide 1,1-dioxide] | 0.355
13 | CCN(C(c1ccc(Cl)cc1)C(F)(F)F)S(=O)(=O)c1cncc(C#N)c1 (stereo not drawn) [Example 54, N-(1-(4-chlorophenyl)-2,2,2-trifluoroethyl)-5-cyano-N-ethylpyridine-3-sulfonamide] | 0.0372
14 | CCN([C@@H](c1ccc(F)cc1)C(F)(F)F)S(=O)(=O)c1cnc(C#N)s1 [Example 83, (S)-2-Cyano-N-ethyl-N-(2,2,2-trifluoro-1-(4-fluorophenyl)ethyl)thiazole-5-sulfonamide] | 3.8
15 | Cc1ccc([C@@H](N(C)S(=O)(=O)c2cncc(C#N)c2)C(F)(F)F)cc1 [Example 225, (R)-5-cyano-N-methyl-N-(2,2,2-trifluoro-1-(p-tolyl)ethyl)pyridine-3-sulfonamide] | 0.105
16 | CN([C@H](c1ccc(Cl)cc1)C(F)(F)F)S(=O)(=O)c1cc2nncn2cn1 [Example 204, (R)—N-(1-(4-chlorophenyl)-2,2,2-trifluoroethyl)-N-methyl-[1,2,4]triazolo[4,3-c]pyrimidine-7-sulfonamide] | 0.759
17 | CCN([C@H](c1ccc(F)cc1)C(F)(F)F)S(=O)(=O)c1cnc2c(C#N)cnn2c1 [Example 141, (R)-3-cyano-N-ethyl-N-(2,2,2-trifluoro-1-(4-fluorophenyl)ethyl)pyrazolo[1,5-a]pyrimidine-6-sulfonamide] | 0.575
18 | CCN([C@@H](c1ccc(F)cc1)C(F)(F)F)S(=O)(=O)c1cccc(C)n1 [Example 32, (S)—N-ethyl-6-methyl-N-(2,2,2-trifluoro-1-(4-fluorophenyl)ethyl)pyridine-2-sulfonamide] | 3.8

Row | Compound | IC50 [µM]
19 | CN([C@H](c1ccc(Cl)cc1)C(F)(F)F)S(=O)(=O)c1cnc2nsnc2c1 [Example 179, (R)—N-(1-(4-chlorophenyl)-2,2,2-trifluoroethyl)-N-methyl-[1,2,5]thiadiazolo[3,4-b]pyridine-6-sulfonamide] | 0.661
20 | CCN(C(c1ccc(F)cc1)C(F)(F)F)S(=O)(=O)c1csc(C(=O)OC)n1 (stereo not drawn) [Example 48, methyl 4-(N-ethyl-N-(2,2,2-trifluoro-1-(4-fluorophenyl)ethyl)sulfamoyl)thiazole-2-carboxylate] | 2
21 | CCN([C@H](c1ccc(F)cc1)C(F)(F)F)S(=O)(=O)c1cnc2nc[nH]c2c1 [Example 156, (R)—N-ethyl-N-(2,2,2-trifluoro-1-(4-fluorophenyl)ethyl)-1H-imidazo[4,5-b]pyridine-6-sulfonamide] | 0.204
22 | CCN(C(c1ccc(F)cc1)C(F)(F)F)S(=O)(=O)c1csc(C(N)=O)n1 (stereo not drawn) [Example 49, 4-(N-ethyl-N-(2,2,2-trifluoro-1-(4-fluorophenyl)ethyl)sulfamoyl)thiazole-2-carboxamide] | 0.339
23 | CN([C@H](c1ccc(OC(F)(F)F)cc1)C(F)(F)F)S(=O)(=O)c1cncc(C#N)c1 [Example 241, (R)-5-cyano-N-methyl-N-(2,2,2-trifluoro-1-(4-(trifluoromethoxy)phenyl)ethyl)pyridine-3-sulfonamide] | 0.105
24 | CCN(C(c1ccc(F)cc1)C(F)(F)F)S(=O)(=O)c1cnnc(OC)c1 (stereo not drawn) [Example 121, N-ethyl-6-methoxy-N-(2,2,2-trifluoro-1-(4-fluorophenyl)ethyl)pyridazine-4-sulfonamide] | 0.191
25 | CCN([C@H](c1ccc(F)cc1)C(F)(F)F)S(=O)(=O)c1cnc2[nH]ccc2n1 [Example 140, (R)—N-ethyl-N-(2,2,2-trifluoro-1-(4-fluorophenyl)ethyl)-5H-pyrrolo[2,3-b]pyrazine-2-sulfonamide] | 0.562
26 | CCN([C@H](c1ccc(C(F)(F)F)cc1)C(F)(F)F)S(=O)(=O)c1cnc2ccccn12 [Example 237, (R)—N-ethyl-N-(2,2,2-trifluoro-1-(4-(trifluoromethyl)phenyl)ethyl)imidazo[1,2-a]pyridine-3-sulfonamide] | 0.0302
27 | CN(C(c1ccc(C(F)(F)F)cc1)C(F)(F)F)S(=O)(=O)c1cncc(C#N)c1 (stereo not drawn) [Example 67, 5-Cyano-N-methyl-N-(2,2,2-trifluoro-1-(4-(trifluoromethyl)phenyl)ethyl)pyridine-3-sulfonamide] | 0.107
28 | CCN([C@H](c1ccc(OC)cc1)C(F)(F)F)S(=O)(=O)C1CCOCC1 [Example 127, (R)—N-ethyl-N-(2,2,2-trifluoro-1-(4-methoxyphenyl)ethyl)tetrahydro-2H-pyran-4-sulfonamide] | 0.309
29 | CCN([C@H](c1ccc(F)cc1)C(F)(F)F)S(=O)(=O)c1nc2cnccn2n1 [Example 144, (R)—N-ethyl-N-(2,2,2-trifluoro-1-(4-fluorophenyl)ethyl)-[1,2,4]triazolo[1,5-a]pyrazine-2-sulfonamide] | 1.78
30 | CCN([C@H](c1ccc(F)cc1)C(F)(F)F)S(=O)(=O)c1ccc2[nH]ncc2n1 [Example 188, (R)—N-ethyl-N-(2,2,2-trifluoro-1-(4-fluorophenyl)ethyl)-1H-pyrazolo[4,3-b]pyridine-5-sulfonamide] | 0.309
31 | CN([C@@H](c1ccc(F)cc1)C(F)(F)F)S(=O)(=O)c1cncc(C#N)c1 [Example 273, (S)-5-Cyano-N-methyl-N-(2,2,2-trifluoro-1-(4-fluorophenyl)ethyl)pyridine-3-sulfonamide] | 1.48
32 | CCN([C@H](c1ccc(F)cc1)C(F)(F)F)S(=O)(=O)c1cnnc(OC)c1 [Example 123, (R)—N-ethyl-6-methoxy-N-(2,2,2-trifluoro-1-(4-fluorophenyl)ethyl)pyridazine-4-sulfonamide] | 0.166
33 | CCN([C@@H](c1ccc(OC(F)(F)F)cc1)C(F)(F)F)S(=O)(=O)c1cncc(C#N)c1 [Example 118, (S)-5-Cyano-N-ethyl-N-(2,2,2-trifluoro-1-(4-(trifluoromethoxy)phenyl)ethyl)pyridine-3-sulfonamide] | 5.62
34 | COc1ccc([C@@H](N(C)S(=O)(=O)c2cncc(F)c2)C(F)(F)F)cc1 [Example 221, (R)-5-fluoro-N-methyl-N-(2,2,2-trifluoro-1-(4-methoxyphenyl)ethyl)pyridine-3-sulfonamide] | 0.234
35 | CCN([C@H](c1ccc(F)cc1)C(F)(F)F)S(=O)(=O)c1cccc2[nH]ncc12 [Example 182, (R)—N-ethyl-N-(2,2,2-trifluoro-1-(4-fluorophenyl)ethyl)-1H-indazole-4-sulfonamide] | 0.288
36 | CN([C@H](c1ccc(F)cc1)C(F)(F)F)S(=O)(=O)c1ccc2nnc(C(F)(F)F)n2n1 [Example 170, (R)—N-methyl-N-(2,2,2-trifluoro-1-(4-fluorophenyl)ethyl)-3-(trifluoromethyl)-[1,2,4]triazolo[4,3-b]pyridazine-6-sulfonamide] | 13.2
